The record followed here is PubChem BioAssay (NCI).

What all share (test): NCI-60 cell line screen, 48 h
In assay [1] the test system is PC-3 prostate.
Assay [2] has as its system RXF 393 renal.
Assay [3] relates to OVCAR-4 ovarian.
For assay [4], the system named is SW-620 colon.
Assay [5] has as its system MOLT-4 leukemia.
For assay [6], the system named is HL-60(TB) leukemia.
The test system of assay [7] is A549 NSCLC.
The test system of assay [8] is HOP-62 NSCLC.
For assay [9], the system named is UACC-62 melanoma.
The subject of assay [10] is NCI-H23 lung.
Assay [11] concerns NCI-H460 lung.
Assay [12] deals with SK-MEL-28 melanoma.

Molecules are shown by their SMILES. “And” between values parts separate entries of the source, which are not always exact repeats. Identical values can stand only once.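 Values below derive from 48-hour exposures of cells grown in 96-well plates, with endpoints linearly interpolated between the two concentrations bracketing the appropriate inhibition level. GI50 marks 50% less growth. TGI: total growth inhibition.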

For the molecule `O=C(c1ccccc1)c1sc2c(=O)c(C(=O)c3ccccc3)c(C(=O)c3ccccc3)sc2c(=O)c1C(=O)c1ccccc1`, the TGI is more than 100 µM in [1]; 72.3 µM in assay [2]; more than 100 µM in [3]; more than 100 µM in [4]; more than 100 µM in assay [5]; 48.4 µM in assay [6]. Besides, the TGI in assay [7], in assay [8], in [9], in [10], in assay [11] and in [12] was more than 100 µM in each case.
`C/C(=C\c1ccc(Cl)c(Cl)c1)[N+](=O)[O-]`: the GI50 in assay [1] was 1.85 µM; in assay [2], 1.51 µM; in [4] it was 1.33 µM; in [5] it was 2.58 µM; in assay [6], 1.94 µM; in assay [9] it was 1.74 µM. The GI50 in assay [11] is 3.15 µM; in assay [12] it was 1.75 µM. For the same molecule, the TGI in assay [1] was 3.81 µM; in assay [2], 2.9 µM; in [3] it was 3.09 µM; in assay [5], more than 100 µM; in assay [6], 6.02 µM and 5.95 µM; in [7], 3.41 µM and 4.52 µM. Also, the TGI in assay [8] is 3.15 µM; in assay [9] it was 3.51 µM and 4.8 µM; in assay [10], 5.36 µM; in assay [11], 14 µM and > 100 µM; in [12], 3.14 µM and 4.81 µM.
`N=C(N)SCc1cccc2c(=O)cc(-c3ccccc3)oc12`: the TGI in assay [1] is 17.3 µM; in assay [2], 19.5 µM; in assay [3], 31.2 µM; in assay [4], more than 39.3 µM; in [5] it was 8.79 µM; in [6] it was 13.1 µM. Moreover, the TGI amounted to 29 µM in assay [7]; 44.8 µM in assay [8]; 32.4 µM in assay [9]; 31.3 µM in [10]; 22.9 µM in [11]; 6.37 µM in [12].
Regarding `Cc1ccc(/C=C/C(=N/NC(=O)N/N=C(/C=C/c2ccc(C)cc2)C(C)(C)CN2CCCCC2)C(C)(C)CN2CCCCC2)cc1`, the TGI in assay [1] was 3.52 µM; in assay [2], 2.68 µM; in [3], 4.26 µM; in assay [4] it was 3.35 µM; in assay [5], 0.345 µM; in assay [6] it was 3.35 µM. In addition, the TGI was found to be 3.02 µM in assay [7]; 3.08 µM in [8]; 4.02 µM in assay [9]; 4.82 µM in [10]; 3.08 µM in assay [11]; 3.18 µM in [12].
`COc1ccc(C(=O)/C=C/c2ccc(OCC(=O)N3CCN(c4ccccc4)CC3)cc2)cc1`: the TGI in [1] is more than 100 µM; in [2], 74 µM; in assay [3], more than 100 µM; in assay [4], more than 100 µM; in assay [5], more than 100 µM; in assay [6] it was more than 67.3 µM. In addition, the TGI in assay [7] was more than 100 µM; in [8], more than 79.6 µM; in [9], more than 100 µM; in assay [10], more than 100 µM; in assay [11], more than 100 µM; in assay [12], more than 100 µM.
For the molecule `CCS(=O)(=O)CCn1cnc2c1c(=O)n(C)c(=O)n2C`, the TGI in assay [1], in [2], in [3], in assay [4], in assay [5] and in [6] was more than 100 µM in each case. For the same molecule, the TGI in [7], in [8], in [9], in assay [10], in assay [11] and in [12] was more than 100 µM throughout.
For `c1ccc(C[n+]2cccc(-c3cc4ccccc4[nH]3)c2)cc1`, the TGI was more than 100 µM in [1]; more than 100 µM in [2]; more than 100 µM in assay [3]; more than 100 µM in assay [4]; 91.1 µM in assay [5]; 40.5 µM in assay [6]. Besides, the TGI is more than 100 µM in [7]; 96.4 µM in assay [8]; 32.1 µM in assay [9]; 71 µM in assay [10]; more than 100 µM in [11]; 38 µM in [12].
On to `S=c1sc2nc(Cl)nc(Cl)c2s1`, for which the TGI in assay [1] was 27.9 µM; in assay [2], 26 µM; in assay [3], 30.6 µM; in [4] it was 21.1 µM; in assay [5] it was more than 29.3 µM; in [6], 8.78 µM. In addition, the TGI came to 42.4 µM in [7]; 36.9 µM in assay [8]; 27.1 µM in assay [9]; 39.3 µM in assay [10]; 30.8 µM in assay [11]; 30.4 µM in assay [12].
Regarding `C=C(Cl)C(=C)CCC(Cl)C(C)C` (stereo unspecified), the TGI in assay [1], in [2], in assay [3], in [4], in assay [5] and in [6] was more than 100 µM in each case. Further, the TGI in [7], in assay [8], in assay [9], in assay [10], in assay [11] and in [12] was more than 100 µM throughout.
For `O=C(O)c1oc(C(=O)O)c(C(=O)O)c1C(=O)O`, the TGI in [1], in [2], in [3], in assay [4], in [5] and in assay [6] was more than 100 µM in each case. Moreover, the TGI in assay [7], in assay [8], in [9], in assay [10], in assay [11] and in assay [12] was more than 100 µM throughout.
On to `O=c1[nH]n(Cc2ccccn2)c2ccc([N+](=O)[O-])cc12`, for which the TGI in assay [1], in [2], in assay [3], in [4], in assay [5] and in assay [6] was more than 100 µM each time. In addition, the TGI in assay [7], in assay [8], in assay [9], in [10], in assay [11] and in assay [12] was more than 100 µM in each case.
For the molecule `COC(=O)[C@@H]1C[C@@H]2c3ccccc3N(S(=O)(=O)c3ccccc3)[C@@H]2N1C(=O)OC`, the TGI in [1], in assay [2], in assay [3], in assay [4], in assay [5] and in [6] was more than 100 µM throughout. Moreover, the TGI in assay [7], in [8], in assay [9], in assay [10], in assay [11] and in assay [12] was more than 100 µM throughout.
